Type in all cases: cell-based
What all share (conditions): 24 h incubation, visual reading

Experiment [1] concerns Staphylococcus aureus MRSA ATCC 43300. Briefly: MIC assay, S. aureus MRSA ATCC 43300. The gist of the method: (§1)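 Overnight MHB cultures at 37° C were diluted 40-fold and grown 2-3 hrs to mid-log, then added at 5×10e5 CFU/mL to twofold compound dilutions (8 to 0.003 μg/ml). Plates were incubated 24 h at 37° C and MIC scored by eye.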
The test system of experiment [2] is Streptococcus pneumoniae MDR ATCC 700677. Briefly: MIC assay, S. pneumoniae MDR ATCC 700677. The gist of the method:
as §1

For experiment [3], the system named is Enterococcus faecium MDR Van A ATCC 51559. Briefly: MIC assay, E. faecium MDR Van A ATCC 51559. In short, it runs like this:
as §1

As for `CCCCCOc1ccc(C(=O)NC(CCCCN)C(=O)NC(CCCCN)C(=O)NC(CCCCNC(=O)C2NC(=O)C3NC(=O)C(NC(=O)C4NC(=O)C(CC(N)=O)NC(=O)C(NC(=O)C(CC(C)C)NC)C(O)c5ccc(c(Cl)c5)Oc5cc4cc(c5OC4OC(CO)C(O)C(O)C4OC4CC(C)(N)C(O)C(C)O4)Oc4ccc(cc4Cl)C3O)c3ccc(O)c(c3)-c3c(O)cc(O)cc32)C(=O)NC)cc1` (stereo not drawn) [MCC_000501], the “Minimum Inhibitory Concentration (MIC) Staph. aureus ATCC43300” value in experiment [1] is listed as “xxxx (xxxx = 0.01-<0.1)”. Further, the “Minimum Inhibitory Concentration (MIC) S. pneumoniae ATCC 700677” value in experiment [2] was “xxxxx (xxxxx = <0.01)”. In addition, the “Minimum Inhibitory Concentration (MIC) E. faecium ATCC51559” value in experiment [3] is “x (x = >4)”.
Taken in the same sequence, the figures for `CCCCCCC(CCCC)C(=O)NC(CCCCN)C(=O)NC(CCCCN)C(=O)NC(CCCCNC(=O)C1NC(=O)C2NC(=O)C(NC(=O)C3NC(=O)C(CC(N)=O)NC(=O)C(NC(=O)C(CC(C)C)NC)C(O)c4ccc(c(Cl)c4)Oc4cc3cc(c4OC3OC(CO)C(O)C(O)C3OC3CC(C)(N)C(O)C(C)O3)Oc3ccc(cc3Cl)C2O)c2ccc(O)c(c2)-c2c(O)cc(O)cc21)C(=O)NC` (stereo not drawn) [MCC_000496] were “xxxx (xxxx = 0.01-<0.1)”, “xxx (xxx = 0.1-<1)” and “x (x = >4)”.
As to `CCCCCCCCCCCC(=O)N[C@@H](CCCCN)C(=O)N[C@@H](CCCCN)C(=O)N[C@@H](CCCCN)C(=O)N[C@@H](CCCCNC(=O)[C@H]1NC(=O)[C@H]2NC(=O)[C@H](NC(=O)[C@@H]3NC(=O)[C@H](CC(N)=O)NC(=O)[C@H](NC(=O)[C@@H](CC(C)C)NC)[C@H](O)c4ccc(c(Cl)c4)Oc4cc3cc(c4O[C@@H]3O[C@H](CO)[C@@H](O)[C@H](O)[C@H]3O[C@H]3C[C@](C)(N)[C@H](O)[C@H](C)O3)Oc3ccc(cc3Cl)[C@H]2O)c2ccc(O)c(c2)-c2c(O)cc(O)cc21)C(=O)O` [MCC_000348], in experiment [1], the “Minimum Inhibitory Concentration (MIC) Staph. aureus ATCC43300” value is listed as “xxxxx (xxxxx = <0.01)”. In addition, the “Minimum Inhibitory Concentration (MIC) S. pneumoniae ATCC 700677” value in experiment [2] was “xxxxx (xxxxx = <0.01)”. Further, the “Minimum Inhibitory Concentration (MIC) E. faecium ATCC51559” value in experiment [3] is “xxx (xxx = 0.1-<1)”.
`CNC(CC(C)C)C(=O)NC1C(=O)NC(CC(N)=O)C(=O)NC2C(=O)NC3C(=O)NC(C(=O)NC(C(=O)NCCCCC(NC(=O)C(CCCCN)NC(=O)C(CCCCN)NC(=O)C(CCCCN)NC(=O)C(CCCCNC(=O)c4ccc(Oc5ccccc5)cc4)NC(=O)c4ccc(Oc5ccccc5)cc4)C(=O)O)c4cc(O)cc(O)c4-c4cc3ccc4O)C(O)c3ccc(c(Cl)c3)Oc3cc2cc(c3OC2OC(CO)C(O)C(O)C2OC2CC(C)(N)C(O)C(C)O2)Oc2ccc(cc2Cl)C1O` (stereo not drawn) [MCC_000230]: the “Minimum Inhibitory Concentration (MIC) Staph. aureus ATCC43300” value in experiment [1] is given as “xxxxx (xxxxx = <0.01)”. Further, the “Minimum Inhibitory Concentration (MIC) S. pneumoniae ATCC 700677” value in experiment [2] is reported as “xxxx (xxxx = 0.01-<0.1)”. The “Minimum Inhibitory Concentration (MIC) E. faecium ATCC51559” value in experiment [3] was “xxx (xxx = 0.1-<1)”.
Take `CCCCCCCCCCCCCC(=O)N[C@@H](CCCCN)C(=O)N[C@@H](CCCCNC(=O)[C@H]1NC(=O)[C@H]2NC(=O)[C@H](NC(=O)[C@@H]3NC(=O)[C@H](CC(N)=O)NC(=O)[C@H](NC(=O)[C@@H](CC(C)C)NC)[C@H](O)c4ccc(c(Cl)c4)Oc4cc3cc(c4O[C@@H]3O[C@H](CO)[C@@H](O)[C@H](O)[C@H]3O[C@H]3C[C@](C)(N)[C@H](O)[C@H](C)O3)Oc3ccc(cc3Cl)[C@H]2O)c2ccc(O)c(c2)-c2c(O)cc(O)cc21)C(=O)NC` [MCC_000627]: in experiment [1], the “Minimum Inhibitory Concentration (MIC) Staph. aureus ATCC43300” value is “xxxxx (xxxxx = <0.01)”. Moreover, the “Minimum Inhibitory Concentration (MIC) S. pneumoniae ATCC 700677” value in experiment [2] is reported as “xxxxx (xxxxx = <0.01)”. Besides, the “Minimum Inhibitory Concentration (MIC) E. faecium ATCC51559” value in experiment [3] was “xx (xx = 1-4)”.
Regarding `CCCCCCCCCCCCC(=O)N[C@@H](CCCCN)C(=O)N[C@@H](CCCCN)C(=O)N[C@@H](CCCCNC(=O)[C@H]1NC(=O)[C@H]2NC(=O)[C@H](NC(=O)[C@@H]3NC(=O)[C@H](CC(N)=O)NC(=O)[C@H](NC(=O)[C@@H](CC(C)C)NC)[C@H](O)c4ccc(c(Cl)c4)Oc4cc3cc(c4O[C@@H]3O[C@H](CO)[C@@H](O)[C@H](O)[C@H]3O[C@H]3C[C@](C)(N)[C@H](O)[C@H](C)O3)Oc3ccc(cc3Cl)[C@H]2O)c2ccc(O)c(c2)-c2c(O)cc(O)cc21)C(N)=O` [MCC_000975], the “Minimum Inhibitory Concentration (MIC) Staph. aureus ATCC43300” value in experiment [1] is listed as “xxxxx (xxxxx = <0.01)”. Further, the “Minimum Inhibitory Concentration (MIC) S. pneumoniae ATCC 700677” value in experiment [2] is listed as “xxxxx (xxxxx = <0.01)”. Besides, in experiment [3], the “Minimum Inhibitory Concentration (MIC) E. faecium ATCC51559” value is reported as “xxx (xxx = 0.1-<1)”.
In the case of `CCCCCCCCCCC(=O)NCC(=O)N[C@@H](CCCCN)C(=O)N[C@@H](CCCCN)C(=O)N[C@@H](CCCCN)C(=O)N[C@@H](CCCCNC(=O)[C@H]1NC(=O)[C@H]2NC(=O)[C@H](NC(=O)[C@@H]3NC(=O)[C@H](CC(N)=O)NC(=O)[C@H](NC(=O)[C@@H](CC(C)C)NC)[C@H](O)c4ccc(c(Cl)c4)Oc4cc3cc(c4O[C@@H]3O[C@H](CO)[C@@H](O)[C@H](O)[C@H]3O[C@H]3C[C@](C)(N)[C@H](O)[C@H](C)O3)Oc3ccc(cc3Cl)[C@H]2O)c2ccc(O)c(c2)-c2c(O)cc(O)cc21)C(=O)O` [MCC_000346], the “Minimum Inhibitory Concentration (MIC) Staph. aureus ATCC43300” value in experiment [1] was “xxxx (xxxx = 0.01-<0.1)”. Further, the “Minimum Inhibitory Concentration (MIC) S. pneumoniae ATCC 700677” value in experiment [2] is reported as “xxxx (xxxx = 0.01-<0.1)”. Moreover, the “Minimum Inhibitory Concentration (MIC) E. faecium ATCC51559” value in experiment [3] was “x (x = >4)”.
For `CCCCCCCCCCC(=O)N[C@@H](CCCCN)C(=O)N[C@@H](CCCCN)C(=O)NCc1cccc(CNC(=O)[C@H]2NC(=O)[C@H]3NC(=O)[C@H](NC(=O)[C@@H]4NC(=O)[C@H](CC(N)=O)NC(=O)[C@H](NC(=O)[C@@H](CC(C)C)NC)[C@H](O)c5ccc(c(Cl)c5)Oc5cc4cc(c5O[C@@H]4O[C@H](CO)[C@@H](O)[C@H](O)[C@H]4O[C@H]4C[C@](C)(N)[C@H](O)[C@H](C)O4)Oc4ccc(cc4Cl)[C@H]3O)c3ccc(O)c(c3)-c3c(O)cc(O)cc32)c1` [MCC_005044], in experiment [1], the “Minimum Inhibitory Concentration (MIC) Staph. aureus ATCC43300” value is recorded as “xxxxx (xxxxx = <0.01)”. The “Minimum Inhibitory Concentration (MIC) S. pneumoniae ATCC 700677” value in experiment [2] is on record as “xxxxx (xxxxx = <0.01)”. The “Minimum Inhibitory Concentration (MIC) E. faecium ATCC51559” value in experiment [3] is on record as “xxx (xxx = 0.1-<1)”.
For the compound `CNC(=O)[C@H](CCCCNC(=O)[C@H]1NC(=O)[C@H]2NC(=O)[C@H](NC(=O)[C@@H]3NC(=O)[C@H](CC(N)=O)NC(=O)[C@H](NC(=O)[C@@H](CC(C)C)NC)[C@H](O)c4ccc(c(Cl)c4)Oc4cc3cc(c4O[C@@H]3O[C@H](CO)[C@@H](O)[C@H](O)[C@H]3O)Oc3ccc(cc3Cl)[C@H]2O)c2ccc(O)c(c2)-c2c(O)cc(O)cc21)NC(=O)[C@H](CCCCN)NC(=O)[C@H](CCCCN)NC(=O)[C@H](CCCCNC(=O)Cc1ccc(-c2ccccc2)cc1)NC(=O)Cc1ccc(-c2ccccc2)cc1` [MCC_000653], in experiment [1], the “Minimum Inhibitory Concentration (MIC) Staph. aureus ATCC43300” value is given as “xxxx (xxxx = 0.01-<0.1)”. Moreover, the “Minimum Inhibitory Concentration (MIC) S. pneumoniae ATCC 700677” value in experiment [2] is “xxxx (xxxx = 0.01-<0.1)”. Also, in experiment [3], the “Minimum Inhibitory Concentration (MIC) E. faecium ATCC51559” value is given as “xx (xx = 1-4)”.
`CNC(=O)[C@H](CCCCNC(=O)[C@H]1NC(=O)[C@H]2NC(=O)[C@H](NC(=O)[C@@H]3NC(=O)[C@H](CC(N)=O)NC(=O)[C@H](NC(=O)[C@@H](CC(C)C)NC)[C@H](O)c4ccc(c(Cl)c4)Oc4cc3cc(c4O[C@@H]3O[C@H](CO)[C@@H](O)[C@H](O)[C@H]3O)Oc3ccc(cc3Cl)[C@H]2O)c2ccc(O)c(c2)-c2c(O)cc(O)cc21)NC(=O)[C@H](CCCCN)NC(=O)[C@H](CCCCN)NC(=O)[C@H](CCCCNC(=O)CCCOc1ccccc1)NC(=O)CCCOc1ccccc1` [MCC_000604]: the “Minimum Inhibitory Concentration (MIC) Staph. aureus ATCC43300” value in experiment [1] is reported as “xx (xx = 1-4)”. The “Minimum Inhibitory Concentration (MIC) S. pneumoniae ATCC 700677” value in experiment [2] was “xx (xx = 1-4)”. Also, the “Minimum Inhibitory Concentration (MIC) E. faecium ATCC51559” value in experiment [3] is recorded as “x (x = >4)”.
As for `CCCCCCCC(=O)NCCCC[C@H](NC(=O)CCCCCCC)C(=O)N[C@@H](CCCCN)C(=O)N[C@@H](CCCCN)C(=O)N[C@@H](CCCCNC(=O)[C@H]1NC(=O)[C@H]2NC(=O)[C@H](NC(=O)[C@@H]3NC(=O)[C@H](CC(N)=O)NC(=O)[C@H](NC(=O)[C@@H](CC(C)C)NC)[C@H](O)c4ccc(c(Cl)c4)Oc4cc3cc(c4O[C@@H]3O[C@H](CO)[C@@H](O)[C@H](O)[C@H]3O[C@H]3C[C@](C)(N)[C@H](O)[C@H](C)O3)Oc3ccc(cc3Cl)[C@H]2O)c2ccc(O)c(c2)-c2c(O)cc(O)cc21)C(=O)NC` [MCC_000654], in experiment [1], the “Minimum Inhibitory Concentration (MIC) Staph. aureus ATCC43300” value is on record as “xxxxx (xxxxx = <0.01)”. In experiment [2], the “Minimum Inhibitory Concentration (MIC) S. pneumoniae ATCC 700677” value was “xxxx (xxxx = 0.01-<0.1)”. In addition, in experiment [3], the “Minimum Inhibitory Concentration (MIC) E. faecium ATCC51559” value is recorded as “xx (xx = 1-4)”.
Taken in the same sequence, the figures for `CCCCCCCNc1ccc(C(=O)N[C@@H](CCCCN)C(=O)N[C@@H](CCCCN)C(=O)N[C@@H](CCCCNC(=O)[C@H]2NC(=O)[C@H]3NC(=O)[C@H](NC(=O)[C@@H]4NC(=O)[C@H](CC(N)=O)NC(=O)[C@H](NC(=O)[C@@H](CC(C)C)NC)[C@H](O)c5ccc(c(Cl)c5)Oc5cc4cc(c5O[C@@H]4O[C@H](CO)[C@@H](O)[C@H](O)[C@H]4O[C@H]4C[C@](C)(N)[C@H](O)[C@H](C)O4)Oc4ccc(cc4Cl)[C@H]3O)c3ccc(O)c(c3)-c3c(O)cc(O)cc32)C(N)=O)cc1` [MCC_004821] were “xxxx (xxxx = 0.01-<0.1)”, “xxxx (xxxx = 0.01-<0.1)” and “xx (xx = 1-4)”.
Taken in the same sequence, the figures for `CCCCCCCCCOc1ccc(C(=O)NC(CCCCN)C(=O)NC(CCCCN)C(=O)NC(CCCCNC(=O)C2NC(=O)C3NC(=O)C(NC(=O)C4NC(=O)C(CC(N)=O)NC(=O)C(NC(=O)C(CC(C)C)NC)C(O)c5ccc(c(Cl)c5)Oc5cc4cc(c5OC4OC(CO)C(O)C(O)C4OC4CC(C)(N)C(O)C(C)O4)Oc4ccc(cc4Cl)C3O)c3ccc(O)c(c3)-c3c(O)cc(O)cc32)C(=O)NC)cc1` (stereo not drawn) [MCC_000504] were “xxxxx (xxxxx = <0.01)”, “xxxxx (xxxxx = <0.01)” and “xxx (xxx = 0.1-<1)”.
